Legend:
KRAS G12C = KRAS G12C (Homo sapiens, UniProt P01116, G12C); assay: GDP-GTP exchange assay (KRAS_G12C exchange assay); assay type: biochemical; settings: bodipy-loaded KRAS G12C, SOS1, GppNHp; 2 hours pre-incubation with inhibitor; read-out: G12C_exchange
Description: The inhibitor potency of the exemplified compounds was determined in a fluorescence based guanine nucleotide exchange assay, which measures the exchange of bodipy-GDP (fluorescently labeled GDP) for GppNHp (Non-hydrolyzable GTP analog) to generate the active state of KRAS in the presence of SOS1 (guanine nucleotide exchange factor). Inhibitors were serially diluted in DMSO and a volume of 0.1 μL was transferred to the wells of a black low volume 384-well plate. 5 μL/well volume of bodipy-loaded KRAS G12C diluted to 5 nM in assay buffer (25 mM Hepes pH 7.5, 50 mM NaCl, 10 mM MgCl2 and 0.01% Brij-35) was added to the plate and pre-incubated with inhibitor for 2 hours at ambient temperature. Appropriate controls (enzyme with no inhibitor or with a G12C inhibitor (AMG-510)) were included on the plate. The exchange was initiated by the addition of a 5 μL/well volume containing 1 mM GppNHp and 300 nM SOS1 in assay buffer. The 10 μL/well reaction concentration of the bodipy-loaded KRAS G12C, GppNHp, and SOS1 were 2.5 nM, 500 uM, and 150 nM, respectively. The reaction plates were incubated at ambient temperature for 2 hours, a time estimated for complete GDP-GTP exchange in the absence of inhibitor. For the KRAS G12D and G12V mutants, similar guanine nucleotide exchange assays were used with 2.5 nM as final concentration for the bodipy loaded KRAS proteins and with 4 hours and 3 hours incubation after adding GppNHp-SOS1 mixture for G12D and G12V respectively. A cyclic peptide described to selectively bind G12D mutant (Sakamoto et al., BBRC 484.3 (2017), 605-611) or internal compounds with confirmed binding were used as positive controls in the assay plates. Fluorescence intensities were measured on a PheraStar plate reader instrument (BMG Labtech) with excitation at 485 nm and emission at 520 nm.
Either GraphPad prism or Genedata Screener SmartFit was used to analyze the data. The IC50 values were derived by fitting the data to a four parameter logistic equation producing a sigmoidal dose-response curve with a variable Hill coefficient.

[1] = system: pERK in KRAS G12C cells (MIA PaCa-2, NCI-H358); assay: Cellular pERK HTRF assay (KRAS_G12C pERK assay); assay type: cell-based; settings: 4 hours incubation, read-out: G12C_pERK
Description: MIA PaCa-2 (KRAS G12C; ATCC® CRL-1420), NCI-H358 (KRAS G12C; ATCC® CRL-5807), A427 (KRAS G12D; ATCC® HTB53), HPAFII (KRAS G12D; ATCC® CRL-1997), YAPC (KRAS G12V; DSMZ ACC382), SW480 (KRAS G12V; ATCC® CRL-228) and NCI-H838 (KRAS WT; ATCC® CRL-5844) cells are purchased from ATCC and maintained in RPMI 1640 media supplemented with 10% FBS (Gibco/Life Technologies). The cells are plated at 5000 cells per well (8 uL) into Greiner 384-well low volume, flat-bottom, and tissue culture treated white plates and incubated overnight at […], 5% CO2. The next morning, test compound stock solutions are diluted in media at 3× the final concentration and 4 uL are added to the cells, with a final concentration of 0.1% of DMSO. The cells are incubated with the test compounds for 4 hours (G12C and G12V) or 2 hrs (G12D) at 37° C., 5% CO2. Four uL of 4×lysis buffer with blocking reagent (Cisbio) are added to each well and plates are rotated gently (300 rpm) for 30 minutes at room temperature. Four uL per well of Cisbio anti Phospho-ERK 1/2 d2 is mixed with anti Phospho-ERK 1/2 Cryptate (1:1), and added to each well, incubated overnight in the dark at room temperature. Plates are read on the Pherastar plate reader at 665 nm and 620 nm wavelengths. Data are analyzed in Genedata Screener using SmartFit for IC50 values.

[2] = system: pERK1/2 in MIA PaCa-2 cells (KRAS G12C); assay: Whole blood pERK1/2 HTRF assay (KRAS_G12C WB pERK assay); assay type: cell-based; settings: Homo sapiens, compound in whole blood, 4 hours, read-out: G12C_WB_pERK
Description: MIA PaCa-2 cells (KRAS G12C; ATCC® CRL-1420), HPAF-II (KRAS G12D; ATCC® CRL-1997) and YAPC (KRAS G12V; DSMZ ACC382) are maintained in RPMI 1640 with 10% FBS (Gibco/Life Technologies). For MIA PaCa-2 assay, cells are seeded into 96 well tissue culture plates (Corning #3596) at 25000 cells per well in 100 uL media and cultured for 2 days at 37° C., 5% CO2 before the assay. For HPAF-II and YAPC assay, cells are seeded in 96 well tissue culture plates at 50000 cells per well in 100 uL media and cultured for 1 day before the assay. Whole Blood are added to the 1 uL dots of compounds (prepared in DMSO) in 96 well plates and mixed gently by pipetting up and down so that the concentration of the compound in blood is 1× of desired concentration, in 0.5% DMSO. The media is aspirated from the cells and 50 uL per well of whole blood with test compound is added and incubated for 4 hours for MIA PaCa and YAPC assay; or 2 hours for HPAF-II assay, respectively at 37° C., 5% CO2. After dumping the blood, the plates are gently washed twice by adding PBS to the side of the wells and dumping the PBS from the plate onto a paper towel, tapping the plate to drain well. Fifty ul/well of 1×lysis buffer #1 (Cisbio) with blocking reagent (Cisbio) and Benzonase nuclease (Sigma Cat #E1014-5KU, 1: 10000 final concentration) is then added and incubated at room temperature for 30 minutes with shaking (250 rpm). Following lysis, 16 uL of lysate is transferred into 384-well Greiner small volume white plate using an Assist Plus (Integra Biosciences, NH). Four uL of 1:1 mixture of anti Phospho-ERK 1/2 d2 and anti Phospho-ERK 1/2 Cryptate (Cisbio) is added to the wells using the Assist Plus and incubated at room temperature overnight in the dark. Plates are read on the Pherastar plate reader at 665 nm and 620 nm wavelengths. Data are analyzed in Genedata Screener using SmartFit for IC50 values.

[3] = Human whole blood stability; assay type: in vitro ADME; settings: percent remaining, 1 μM, 37° C.
Description: The whole blood stability of the exemplified compounds was determined by LC-MS/MS. The 96-Well Flexi-Tier™ Block (Analytical Sales & Services, Inc, Flanders, NJ) was used for the incubation plate containing 1.0 mL glass vials with 0.5 mL of blood per vial (pooled gender, human whole blood sourced from BIOIVT, Hicksville, NY or similar). Blood was pre-warmed in water bath to 37° C. for 30 minutes. 96-deep well analysis plate was prepared with the addition of 100 μL ultrapure water/well. 50 μL chilled ultrapure water/well was added to 96-deep well sample collection plate and covered with a sealing mat. 1 μL of 0.5 mM compound working solution (DMSO:water) was added to the blood in incubation plate to reach final concentrations of 1 μM, mixed by pipetting thoroughly and 50 μL was transferred 50 into the T=0 wells of the sample collection plate. Blood was allowed to sit in the water for 2 minutes and then 400 μL stop solution/well was added (acetonitrile containing an internal standard). The incubation plate was placed in the Incu-Shaker CO2 Mini incubator (Benchmark Scientific, Sayreville, NJ) at 37° C. with shaking at 150 rpm. At 1, 2 and 4-hr, the blood samples were mixed thoroughly by pipetting and 50 μL is transferred into the corresponding wells of the sample collection plate. Blood was allowed to sit in the water for 2 minutes and then 400 μL of stop solution/well was added. The collection plate was sealed and vortexed at 1700 rpm for 3 minutes (VX-2500 Multi-Tube Vortexer, VWR International, Radnor, PA), and samples were then centrifuged in the collection plate at 3500 rpm for 10 minutes (Allegra X-14R Centrifuge Beckman Coulter, Indianapolis, IN). 100 μL of supernatant/well was transferred from the sample collection plate into the corresponding wells of the analysis plate. The final plate was vortexed at 1700 rpm for 1 minute and analyze samples by LC-MS/MS. The peak area ratio of the 1, 2, and 4 hr samples relative to T=0 was used to determine the percent remaining. The natural log of the percent remaining versus time was used determine a slope to calculate the compounds half-life in blood (t1/2=0.693/slope).

Sequence of KRAS G12C (P01116 1-188 isoform P01116-2 G12C): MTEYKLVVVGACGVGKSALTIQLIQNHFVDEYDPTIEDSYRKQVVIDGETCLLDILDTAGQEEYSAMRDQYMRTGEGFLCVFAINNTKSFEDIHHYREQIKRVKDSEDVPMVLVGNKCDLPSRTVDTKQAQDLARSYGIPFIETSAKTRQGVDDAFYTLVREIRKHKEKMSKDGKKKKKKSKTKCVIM

Row | Compound | IC50 (KRAS G12C) | IC50 [1] | IC50 [2] | Human whole blood stability at 4 hr [3]
1 | CC#CC(=O)N1CC[C@H](n2ncc3c(O[C@@H](C)[C@@H]4CCCN4C)nc4c(F)c(-c5nccc6cccc(C#N)c56)c(Cl)cc4c32)C[C@H]1CC#N (single isomer, unassigned) [Example 1a] | ≤ 100 nM | ≤ 100 nM | ≤ 100 nM | ††† (WBS >90%)
2 | C=C(F)C(=O)N1CC[C@H](n2ncc3c(N4CC(N(C)CC)C4)nc4c(F)c(-c5c(C)c(C)cc6[nH]ncc56)c(Cl)cc4c32)C[C@H]1CC#N (single isomer, unassigned) [Example 4a] | ≤ 100 nM | ≤ 100 nM | ≤ 100 nM | †† (WBS >70% but ≤90%)
3 | CC#CC(=O)N1CC[C@H](n2ncc3c(O[C@@H](C)[C@@H]4CCCN4C)nc4c(F)c(-c5cccc6cccc(C#N)c56)c(C)cc4c32)C[C@H]1CC#N (single isomer, unassigned) [Example 7] | ≤ 100 nM | ≤ 100 nM | ≤ 100 nM | †† (WBS >70% but ≤90%)
4 | C=C(F)C(=O)N1CC[C@H](n2ncc3c(O[C@@H](C)[C@@H]4CCCN4C)nc4c(F)c(-c5cccc6cccc(C#N)c56)c(Cl)cc4c32)C[C@H]1CC#N (single isomer, unassigned) [Example 5b] | ≤ 100 nM | ≤ 100 nM | ≤ 100 nM | 
5 | C=C(F)C(=O)N1CC[C@H](n2ncc3c(O[C@@H](C)[C@@H]4CCCN4C)nc4c(F)c(-c5cccc6cccc(C#N)c56)c(Cl)cc4c32)C[C@H]1CC#N (single isomer, unassigned) [Example 5a] | 100 to 1000 nM |  |  | 
6 | C=C(F)C(=O)N1CC[C@H](n2ncc3c(N4CC(N(C)CC)C4)nc4c(F)c(-c5c(C)c(C)cc6[nH]ncc56)c(Cl)cc4c32)C[C@H]1CC#N (single isomer, unassigned) [Example 4b] | 1000 to 5000 nM |  |  | 
7 | CC#CC(=O)N1CC[C@H](n2ncc3c(O[C@@H](C)[C@@H]4CCCN4C)nc4c(F)c(-c5nccc6cccc(C#N)c56)c(Cl)cc4c32)C[C@H]1CC#N (single isomer, unassigned) [Example 1b] | ≤ 100 nM |  |  | 
8 | C=C(F)C(=O)N1CC[C@H](n2ncc3c(O[C@@H](C)[C@@H]4CCCN4C)nc4c(F)c(-c5nccc6cccc(C#N)c56)c(Cl)cc4c32)C[C@H]1CC#N (single isomer, unassigned) [Example 3a] | ≤ 100 nM | ≤ 100 nM | ≤ 100 nM | ††† (WBS >90%)
9 | COC/C=C/C(=O)N1CC[C@H](n2ncc3c(O[C@@H](C)[C@@H]4CCCN4C)nc4c(F)c(-c5cccc6cccc(C#N)c56)c(Cl)cc4c32)C[C@H]1CC#N [Example 6b, 8-(8-chloro-1-((2S,4S)-2-(cyanomethyl)-1-((E)-4-methoxybut-2-enoyl)piperidin-4-yl)-6-fluoro-4-((S)-1-((S)-1-methylpyrrolidin-2-yl)ethoxy)-1H-pyrazolo[4,3-c]quinolin-7-yl)-1-naphthonitrile] |  | ≤ 100 nM | ≤ 100 nM | ††† (WBS >90%)
10 | COC/C=C/C(=O)N1CC[C@H](n2ncc3c(O[C@@H](C)[C@@H]4CCCN4C)nc4c(F)c(-c5nccc6cccc(C#N)c56)c(Cl)cc4c32)C[C@H]1CC#N [Example 2a, 1-(8-chloro-1-((2S,4S)-2-(cyanomethyl)-1-((E)-4-methoxybut-2-enoyl)piperidin-4-yl)-6-fluoro-4-((S)-1-((S)-1-methylpyrrolidin-2-yl)ethoxy)-1H-pyrazolo[4,3-c]quinolin-7-yl)isoquinoline-8-carbonitrile] | ≤ 100 nM | ≤ 100 nM | ≤ 100 nM | ††† (WBS >90%)
11 | C=C(F)C(=O)N1CC[C@H](n2ncc3c(O[C@@H](C)[C@@H]4CCCN4C)nc4c(F)c(-c5nccc6cccc(C#N)c56)c(Cl)cc4c32)C[C@H]1CC#N (single isomer, unassigned) [Example 3b] | 100 to 1000 nM |  |  | 
12 | COC/C=C/C(=O)N1CC[C@H](n2ncc3c(O[C@@H](C)[C@@H]4CCCN4C)nc4c(F)c(-c5cccc6cccc(C#N)c56)c(Cl)cc4c32)C[C@H]1CC#N [Example 6a, 8-(8-chloro-1-((2S,4S)-2-(cyanomethyl)-1-((E)-4-methoxybut-2-enoyl)piperidin-4-yl)-6-fluoro-4-((S)-1-((S)-1-methylpyrrolidin-2-yl)ethoxy)-1H-pyrazolo[4,3-c]quinolin-7-yl)-1-naphthonitrile] | ≤ 100 nM |  |  | 

From US12030884B2, “Pyrazoloquinoline KRAS inhibitors” (INCYTE CORPORATION, priority 2021, dated 2024)
